Experimental findings from patent publication US7326825B2, “Methods of ungulate nuclear transfer” (Roslin Institute (Edinburgh), priority 1995, dated 2008) are described below.

Assay [1] has as its system enucleated oocytes fused to primary bovine fibroblasts. Briefly: Pronuclear formation in enucleated oocytes fused to primary bovine fibroblasts and subsequently activated. The assay is classed as cell-based. Further details: percentage of activated oocytes containing 1 PN / percentage of activated oocytes containing 2 PN / percentage of activated oocytes containing 3 PN / percentage of activated oocytes containing 4 PN / percentage of activated oocytes containing >4 PN: concentration or dose not given beside the values.

The subject of another assay is ovine oocytes. Nature of the assay: Nuclei formation upon activation of reconstructed ovine oocytes matured in vivo. As to conditions: donor cells introduced in the absence of activation. Format: cell-based. As for the experimental part:
Similar observations to those in Example 1 have also been made in ovine oocytes which have been matured in vivo. Freshly ovulated oocytes can be retrieved by flushing from the oviducts of superstimulated ewes 24 hours after prostaglandin treatment. The use of calcium magnesium free PBS/1.0% FCS as a flushing medium prevents oocyte activation. Oocytes can be enucleated in calcium free medium and donor cells introduced as above in the absence of activation. No organised spindle is observed, multiple nuclei are formed upon subsequent activation and this may be suppressed by nocodazole treatment.

Where [2] appears, read: nocodazole 1 hour prior to and 6 hours following activation, fused 24 hpm, activated 42 hpm, scored 12 hours post activation.

Regarding `COC(=O)Nc1nc2ccc(C(=O)c3cccs3)cc2[nH]1` [nocodazole], the formation of micronuclei entry in assay [1] (incubation of activated oocytes for 5 hours, 1 hour prior to and following the activation stimulus) is “prevents the formation of micronuclei”. For the same molecule, in assay [1] (setting [2]), the “percentage of activated oocytes containing 1 PN” value was determined as 100%, the “percentage of activated oocytes containing 2 PN” value was found to be 0%, the “percentage of activated oocytes containing 3 PN” value turned out to be 0% and the “percentage of activated oocytes containing 4 PN” value is reported as 0%. Moreover, the “percentage of activated oocytes containing >4 PN” value in assay [1] (setting [2]) worked out at 0%. Besides, the “formation of multiple nuclei upon subsequent activation” value in the assay on ovine oocytes is “suppressed”.
